Consider 22 molecules from patent US10280159B2 (AbbVie Deutschland GmbH & Co. KG, priority 2015, dated 2019).

Type in all cases: cell-based
The target in one assay is T1, human S1PR5 (Homo sapiens, UniProt Q9H228).
T1 construct: host or cells: CHO-K1
Kind of assay: Intracellular Ca2+ release (FLIPR) agonist potency, S1P5. The note with it: recombinant CHO-K1 cells expressing human S1PR5, aequorin, Gq/i5; Calcium 5 FLIPR; read-out: S1P5 EC50 range. The procedure, abridged:
(§1)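 EC50 values reflect nonlinear fits of FLIPR fluorescence data, normalized to the phospho-fingolimod curve. Cells were CHO-K1 expressing the human receptor, aequorin and Gq/i5, cultured in F-12 Ham with 10% FBS.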

The target in a further assay is T2, human S1PR1 (Homo sapiens, UniProt P21453).
T2 construct: host or cells: CHO-K1
The assay can be described thus: Intracellular Ca2+ release (FLIPR) agonist potency, S1P1. To be noted: recombinant CHO-K1 cells expressing human S1PR1, aequorin, Gq/i5; Calcium 5 FLIPR; read-out: S1P1 EC50. In outline: as §1

Another assay concerns the target T3, human S1PR3 (Homo sapiens, UniProt Q99500).
T3 construct: host or cells: CHO-K1
The assay can be described thus: Intracellular Ca2+ release (FLIPR) agonist potency, S1P3. The note with it: recombinant CHO-K1 cells expressing human S1PR3, aequorin, Gq/i5; Calcium 5 FLIPR; read-out: S1P3 EC50. How it is done:
Agonistic activity was measured using the method described below.
Intracellular Ca^2+ Release
Agonist potency and intrinsic activity was assessed by measurement of intracellular Ca^2+ release. Recombinant CHO-K1 cells (Euroscreen, Brussels, Belgium) expressing human S1PR5, S1PR1, S1PR3 or S1PR4 receptors, aequorin, and GTP binding protein Gq/i5 were cultured using a medium containing nutrient mixture F-12 Ham (Sigma-Aldrich) with 10% FBS, and 100 μg/mL gentamicin and equilibrated at 5% CO2.
Phospho-fingolimod was used as positive control. Antagonists were pre-incubated for 10 min with cells before addition of the agonist (phospho-fingolimod at EC80). Measurements were performed using a fluorometric imaging plate reader FLIPR®tetra (Molecular Devices). Agonist at the human S1P receptors were characterized by deducing EC50 (potency) values from a nonlinear fit to the measured fluorescence raw data after normalization to the reference agonist (phospho-fingolimod) curve.

The next assay addresses T4, human S1PR4 (Homo sapiens, UniProt O95977).
T4 construct: host or cells: CHO-K1
T4 sequence (O95977 1-384): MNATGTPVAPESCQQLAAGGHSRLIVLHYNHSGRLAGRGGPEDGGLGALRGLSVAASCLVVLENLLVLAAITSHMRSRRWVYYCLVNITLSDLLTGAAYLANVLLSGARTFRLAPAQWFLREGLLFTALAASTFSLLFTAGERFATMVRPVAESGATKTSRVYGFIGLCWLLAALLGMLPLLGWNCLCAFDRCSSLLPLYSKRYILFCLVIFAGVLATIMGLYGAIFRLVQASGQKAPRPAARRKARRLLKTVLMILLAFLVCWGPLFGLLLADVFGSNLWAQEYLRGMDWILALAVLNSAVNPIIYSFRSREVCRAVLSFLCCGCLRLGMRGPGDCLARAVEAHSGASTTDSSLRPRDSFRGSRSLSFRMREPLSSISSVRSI
The assay can be described thus: Intracellular Ca2+ release (FLIPR) agonist potency, S1P4. The note with it: recombinant CHO-K1 cells expressing human S1PR4, aequorin, Gq/i5; Calcium 5 FLIPR; read-out: S1P4 EC50. In outline: as §1

The EC50 is the concentration giving half of the maximal effect.

T2 sequence (P21453 whole entry): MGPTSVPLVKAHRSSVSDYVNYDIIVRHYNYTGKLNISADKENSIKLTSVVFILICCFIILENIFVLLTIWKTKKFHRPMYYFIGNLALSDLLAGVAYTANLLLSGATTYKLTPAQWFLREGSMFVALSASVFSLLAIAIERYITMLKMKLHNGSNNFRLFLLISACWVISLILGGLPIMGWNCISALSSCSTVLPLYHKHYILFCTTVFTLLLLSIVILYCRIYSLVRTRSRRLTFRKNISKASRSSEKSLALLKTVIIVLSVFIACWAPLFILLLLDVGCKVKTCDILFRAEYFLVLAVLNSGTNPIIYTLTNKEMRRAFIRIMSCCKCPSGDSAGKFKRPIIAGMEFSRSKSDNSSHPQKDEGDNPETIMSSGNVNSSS
T1 sequence (Q9H228 whole entry): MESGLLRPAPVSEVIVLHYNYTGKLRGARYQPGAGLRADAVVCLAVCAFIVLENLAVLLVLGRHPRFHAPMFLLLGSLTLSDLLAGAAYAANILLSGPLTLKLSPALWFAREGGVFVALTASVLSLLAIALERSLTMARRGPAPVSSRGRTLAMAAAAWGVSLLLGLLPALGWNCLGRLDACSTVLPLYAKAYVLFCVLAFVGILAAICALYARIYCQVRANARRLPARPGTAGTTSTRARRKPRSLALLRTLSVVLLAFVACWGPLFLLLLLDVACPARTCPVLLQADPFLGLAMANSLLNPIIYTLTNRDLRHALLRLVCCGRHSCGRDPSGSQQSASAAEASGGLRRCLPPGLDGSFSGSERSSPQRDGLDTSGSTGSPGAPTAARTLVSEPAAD
T3 sequence (Q99500 whole entry): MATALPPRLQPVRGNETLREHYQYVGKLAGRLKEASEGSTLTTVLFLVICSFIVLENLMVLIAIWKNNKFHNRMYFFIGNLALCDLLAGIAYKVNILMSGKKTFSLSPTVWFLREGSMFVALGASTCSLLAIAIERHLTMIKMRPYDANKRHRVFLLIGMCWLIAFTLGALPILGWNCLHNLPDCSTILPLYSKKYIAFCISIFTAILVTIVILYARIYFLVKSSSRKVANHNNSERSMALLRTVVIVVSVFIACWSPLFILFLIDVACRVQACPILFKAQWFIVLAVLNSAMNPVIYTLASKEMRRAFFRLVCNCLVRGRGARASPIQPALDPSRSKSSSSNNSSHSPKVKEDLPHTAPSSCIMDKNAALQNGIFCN

Take `O=C(O)C1CN(C2COc3cc(OCc4c(Cl)cccc4C4CC4)ccc3C2)C1` (stereo not shown) [Compound 25, 1-(7-((2-chloro-6-cyclopropylbenzyl)oxy)chroman-3-yl)azetidine-3-carboxylic acid]: the EC50 on human S1PR5 is below 10 nM; at human S1PR1, above 1000 nM; at human S1PR3, above 1000 nM; on human S1PR4, below 1000 nM.
For the molecule `O=C(O)C1CN(C2COc3cc(C#Cc4cc(F)cc(F)c4)ccc3C2)C1` (stereo not shown) [Compound 27, 1-(7-((3,5-difluorophenyl)ethynyl)chroman-3-yl)azetidine-3-carboxylic acid], the EC50 was below 10 nM on human S1PR5, above 1000 nM on human S1PR1, above 1000 nM on human S1PR3 and below 1000 nM on human S1PR4.
Turning to `O=C(O)CNC1CCc2cc(C#Cc3cc(F)cc(F)c3)ccc2C1` (stereo not shown) [Compound 28, 2-((6-((3,5-difluorophenyl)ethynyl)-1,2,3,4-tetrahydronaphthalen-2-yl)amino)acetic acid], the EC50 on human S1PR5 was below 10 nM; at human S1PR1 it was above 1000 nM; at human S1PR3, above 1000 nM; at human S1PR4, below 1000 nM.
Take `O=C(O)CNC1CCc2cc(C#Cc3c(Cl)cccc3Cl)ccc2C1` (stereo not shown) [Compound 29, 2-((6-((2,6-dichlorophenyl)ethynyl)-1,2,3,4-tetrahydronaphthalen-2-yl)amino)acetic acid]: the EC50 is below 10 nM at human S1PR5, above 1000 nM on human S1PR1, above 1000 nM at human S1PR3 and below 1000 nM on human S1PR4.
For the molecule `O=C(O)CNC1CCc2cc(C#CC3CCCCC3)ccc2C1` (stereo not shown) [Compound 30, 2-((6-(cyclohexylethynyl)-1,2,3,4-tetrahydronaphthalen-2-yl)amino)acetic acid], the EC50 on human S1PR5 is below 10 nM; on human S1PR1, above 1000 nM; at human S1PR3, above 1000 nM; on human S1PR4, below 1000 nM.
For `O=C(O)C1CCN(C2CCc3cc(OCc4c(Cl)cccc4Cl)ccc3C2)CC1` (stereo not shown) [Compound 31, 1-(6-((2,6-dichlorobenzyl)oxy)-1,2,3,4-tetrahydronaphthalen-2-yl)piperidine-4-carboxylic acid], the EC50 on human S1PR5 was below 10 nM; on human S1PR1, below 1000 nM; at human S1PR3, above 1000 nM; on human S1PR4, below 1000 nM.
Regarding `O=C(O)C12CC(NC3CCc4cc(OCc5c(Cl)cccc5Cl)ccc4C3)(C1)C2` (stereo not shown) [Compound 32, 3-((6-((2,6-dichlorobenzyl)oxy)-1,2,3,4-tetrahydronaphthalen-2-yl)amino)bicyclo[1.1.1]pentane-1-carboxylic acid], the EC50 on human S1PR5 was below 10 nM; at human S1PR1 it was above 1000 nM; on human S1PR3, above 1000 nM; at human S1PR4, below 1000 nM.
Turning to `CC(NC1CCc2cc(OCc3c(Cl)cccc3Cl)ccc2C1)C(=O)O` (stereo not shown) [Compound 33, 2-((6-((2,6-dichlorobenzyl)oxy)-1,2,3,4-tetrahydronaphthalen-2-yl)amino)propanoic acid], the EC50 is below 10 nM at human S1PR5, above 1000 nM on human S1PR1, above 1000 nM on human S1PR3 and below 1000 nM at human S1PR4.
Consider `CCc1cccc(Cl)c1COc1ccc2c(c1)OCC(NCC(=O)O)C2` (stereo not shown) [Compound 34, 2-((7-((2-chloro-6-ethylbenzyl)oxy)chroman-3-yl)amino)acetic acid], for which the EC50 at human S1PR5 was below 10 nM; on human S1PR1 it was above 1000 nM; at human S1PR3, above 1000 nM; at human S1PR4 it was below 1000 nM.
Take `O=C(O)CNC1COc2cc(OCc3c(Cl)cccc3Cl)ccc2C1` (stereo not shown) [Compound 35, 2-((7-((2,6-dichlorobenzyl)oxy)chroman-3-yl)amino)acetic acid]: the EC50 on human S1PR5 was 100 to 1000 nM; at human S1PR1, above 1000 nM; at human S1PR3, above 1000 nM; on human S1PR4 it was below 1000 nM.
As to `O=C(O)C1CN(C2COc3cc(C#Cc4cc(F)ccc4F)ccc3C2)C1` (stereo not shown) [Compound 38, 1-(7-((2,5-difluorophenyl)ethynyl)chroman-3-yl)azetidine-3-carboxylic acid], the EC50 on human S1PR5 was below 10 nM; on human S1PR1, above 1000 nM; on human S1PR3, above 1000 nM; on human S1PR4, below 1000 nM.
As to `O=C(O)C1CN(C2COc3cc(C#Cc4cccc(Cl)c4)ccc3C2)C1` (stereo not shown) [Compound 40, 1-(7-((3-chlorophenyl)ethynyl)chroman-3-yl)azetidine-3-carboxylic acid], the EC50 was 10 to 100 nM at human S1PR5, above 1000 nM at human S1PR1, above 1000 nM at human S1PR3 and below 1000 nM at human S1PR4.
For the molecule `O=C(O)C1CN(C2COc3cc(C#Cc4ccccc4C(F)(F)F)ccc3C2)C1` (stereo not shown) [Compound 41, 1-(7-((2-(trifluoromethyl)phenyl)ethynyl)chroman-3-yl)azetidine-3-carboxylic acid], the EC50 on human S1PR5 is 10 to 100 nM; at human S1PR1, above 1000 nM; on human S1PR3, above 1000 nM; on human S1PR4, above 1000 nM.
Regarding `O=C(O)C1CN(C2COc3cc(C#Cc4ccccc4OC(F)F)ccc3C2)C1` (stereo not shown) [Compound 42, 1-(7-((2-(difluoromethoxy)phenyl)ethynyl)chroman-3-yl)azetidine-3-carboxylic acid], the half-maximal effective concentration (EC50) is 10 to 100 nM on human S1PR5, above 1000 nM on human S1PR1, above 1000 nM on human S1PR3 and above 1000 nM on human S1PR4.
Take `O=C(O)C1CN(C2COc3cc(C#Cc4c(Cl)cccc4Cl)ccc3C2)C1` (stereo not shown) [Compound 44, 1-(7-((2,6-dichlorophenyl)ethynyl)chroman-3-yl)azetidine-3-carboxylic acid]: the EC50 on human S1PR5 was 10 to 100 nM; at human S1PR1, above 1000 nM; at human S1PR3, above 1000 nM; at human S1PR4 it was above 1000 nM.
For `O=C(O)C1CN(C2COc3cc(C#Cc4c(F)cccc4F)ccc3C2)C1` (stereo not shown) [Compound 47, 1-(7-((2,6-difluorophenyl)ethynyl)chroman-3-yl)azetidine-3-carboxylic acid], the EC50 at human S1PR5 was 10 to 100 nM; on human S1PR1 it was above 1000 nM; on human S1PR3, above 1000 nM; on human S1PR4 it was below 1000 nM.
For the molecule `O=C(O)C12CC(NC3COc4cc(OCc5c(Cl)cccc5Cl)ccc4C3)(C1)C2` (stereo not shown) [Compound 48, 3-((7-((2,6-dichlorobenzyl)oxy)chroman-3-yl)amino)-bicyclo[1.1.1]pentane-1-carboxylic acid], the EC50 is 10 to 100 nM at human S1PR5, above 1000 nM on human S1PR1, above 1000 nM at human S1PR3 and above 1000 nM on human S1PR4.
As for `O=C(O)C1CN(C2COc3cc(-c4ccc(OCc5ccc(Cl)cc5)cc4)ccc3C2)C1` (stereo not shown) [Compound 54, 1-(7-(4-((4-chlorobenzyl)oxy)phenyl)chroman-3-yl)azetidine-3-carboxylic acid], the EC50 was below 10 nM at human S1PR5, above 1000 nM at human S1PR1, above 1000 nM at human S1PR3 and above 1000 nM at human S1PR4.
`O=C(O)C1CN(C2COc3cc(-c4ccc(OCC5CCCCC5)cc4)ccc3C2)C1` (stereo not shown) [Compound 55, 1-(7-(4-(cyclohexylmethoxy)phenyl)chroman-3-yl)azetidine-3-carboxylic acid]: the EC50 on human S1PR5 was below 10 nM; at human S1PR1 it was below 1000 nM; on human S1PR3, above 1000 nM; at human S1PR4, above 1000 nM.
As to `O=C(O)C1CN(C2COc3cc(-c4ccc(OCc5cccc(F)c5F)cc4)ccc3C2)C1` (stereo not shown) [Compound 56, 1-(7-(4-((2,3-difluorobenzyl)oxy)phenyl)chroman-3-yl)azetidine-3-carboxylic acid], the EC50 on human S1PR5 was 10 to 100 nM; at human S1PR1, below 1000 nM; on human S1PR3 it was above 1000 nM; at human S1PR4, above 1000 nM.
Regarding `CCc1ccccc1COc1ccc2c(c1)OCC(N1CC(C(=O)O)C1)C2` (stereo not shown) [Compound 64, 1-(7-((2-ethylbenzyl)oxy)chroman-3-yl)azetidine-3-carboxylic acid], the EC50 at human S1PR5 was 10 to 100 nM; at human S1PR1 it was above 1000 nM; at human S1PR3, above 1000 nM; on human S1PR4, below 1000 nM.
As to `CCc1cccc(F)c1COc1ccc2c(c1)OCC(N1CC(C(=O)O)C1)C2` (stereo not shown) [Compound 65, 1-(7-((2-ethyl-6-fluorobenzyl)oxy)chroman-3-yl)azetidine-3-carboxylic acid], the EC50 on human S1PR5 was below 10 nM; at human S1PR1, above 1000 nM; on human S1PR3, above 1000 nM; on human S1PR4, below 1000 nM.
